Data as given in PubChem BioAssay AID1996.
≈ marks a conversion by molar mass, not a printed value.

Conditions: buffer; pH 7.4; 200.0 µM

Compared with `O=S(=O)(NCc1cccnc1)c1ccc(Cl)c2ccccc12`, `COc1cc(C)c(Cl)cc1S(=O)(=O)NCc1ccccn1` is lower in solubility kinetic: over 49.9 µg/mL for the first, 34.5 µg/mL (≈ 106 µM) for the second.

Going from `CSC1=NCCN1C(=O)c1ccc(C)cc1` to `O=C(CSC(=S)N1CCSCC1)c1ccc(Cl)cc1`, the solubility kinetic falls from over 35.1 µg/mL to under 0.7 µg/mL.

`CC(CN1CCN(C)CC1)OC(=O)c1cccc(F)c1.Cl` (stereo unspecified) and `CCN1CCN(C(=O)/C(=C/c2cccs2)NC(=O)c2ccc(C)c(C)c2)CC1` cannot be ordered by solubility kinetic: over 47.5 µg/mL for the first, 48.5 µg/mL (≈ 122 µM) for the second.

Compared with `CCOC(=O)c1c(C)[nH]c(C(=O)COC(=O)CCNS(=O)(=O)c2ccc(NC(C)=O)cc2)c1C`, `CCOC(=O)c1c(C)[nH]c(C)c1C(=O)COC(=O)CSc1ccc(C)cc1` is higher in solubility kinetic: 19.2 µg/mL (≈ 38.9 µM) for the first, over 58.4 µg/mL for the second.

First: CC(=O)CCc1oc2c([N+](=O)[O-])cccc2c1-c1ccc(C)o1
Second: COc1cc(NC(=O)c2ccccc2[N+](=O)[O-])ccc1NC(=O)c1cc2ccccc2o1
The solubility kinetic of the first is 4-fold higher: 2.8 µg/mL (≈ 8.94 µM) for the first, 0.7 µg/mL (≈ 1.62 µM) for the second.

Going from `CC(NCCc1ccc(O)cc1)C(O)c1ccc(O)cc1.Cl` (stereo unspecified) to `CCCCc1ccc(NC(=O)NCc2ccccn2)cc1`, the solubility kinetic falls from over 48.6 µg/mL to 13.1 µg/mL (≈ 46.2 µM).

Compared with `Cc1nn(CC(=O)O)c(C)c1NC(=O)c1cccs1`, `CCC(=O)Nc1nc(-c2ccccc2)nc(SC)c1C(C)=O` is lower in solubility kinetic: over 41.9 µg/mL for the first, 0.4 µg/mL (≈ 1.27 µM) for the second.

`CCNC(=O)CC1C(=O)N(CC)C(=S)N1NC(=O)c1ccccc1` (stereo unspecified) and `O=C(Nc1cccc(S(=O)(=O)NC2=NCCC2)c1)c1ccccc1` cannot be ordered by solubility kinetic: over 52.3 µg/mL for the first, over 51.5 µg/mL for the second.

`COC(=O)C(Cc1ccccc1)N1CCS(=O)(=O)CC1` (stereo unspecified) and `CC(OC(=O)c1ccccc1CCc1ccccc1)C(N)=O` (stereo unspecified) cannot be ordered by solubility kinetic: over 44.6 µg/mL for the first, over 44.6 µg/mL for the second.

`CC(C(N)=O)N1C(=O)NC2(CCCc3ccccc32)C1=O` (stereo unspecified) and `Cn1cccc1C(=O)N1CCc2ccccc2C1` cannot be ordered by solubility kinetic: over 43.1 µg/mL for the first, over 36 µg/mL for the second.

Going from `Cc1ccc(N(C)S(=O)(=O)c2cccc(C(=O)N3CCN(Cc4ccccc4)CC3)c2)cc1` to `Cc1ccc(CCNC(=O)C2CCC(=O)N2CCc2ccccc2)cc1` (stereo unspecified), the solubility kinetic rises from 23 µg/mL (≈ 49.6 µM) to 47.1 µg/mL (≈ 134 µM) (2-fold).

`COC(=O)C1=C(N)OC2=C(C(=O)CC(C)(C)C2)C1c1ccccc1OC` (stereo unspecified) and `COc1ccccc1CNC(=O)CN(C)CC(=O)Nc1ccc(F)c(F)c1F` cannot be ordered by solubility kinetic: over 53.6 µg/mL for the first, over 59.3 µg/mL for the second.

Compared with `Cc1ccc(S(=O)(=O)N2CCOCC2)cc1NC(=O)COC(=O)c1ccc(Cl)s1`, `CC(=O)c1cccc(OCC(=O)OCC(=O)Nc2cc(S(=O)(=O)N3CCCCC3)ccc2C)c1` is 20-fold higher in solubility kinetic: 3 µg/mL (≈ 6.54 µM) for the first, 61.5 µg/mL (≈ 126 µM) for the second.

First: CC(C)(Oc1ccc(Cl)cc1)C(=O)O/N=C(\N)c1ccncc1
Second: CC(C)(C)C(=O)OCc1nc(-c2ccc(Cl)cc2)cs1
The solubility kinetic of the first is higher: 34.3 µg/mL (≈ 103 µM) for the first, under 0.7 µg/mL for the second.

First: Cc1cccc(OCC(=O)NCc2ccccc2)c1
Second: Cc1cccc(OCC(=O)NCc2cc(C)nc3ccccc23)c1
The solubility kinetic of the first is higher: over 38.3 µg/mL for the first, 5 µg/mL (≈ 15.6 µM) for the second.

Compared with `Cc1c(C)n(Cc2ccccc2)c2ncnc(Cl)c12`, `c1ccc(Cn2c(NCc3ccccn3)nc3ccccc32)cc1` is higher in solubility kinetic: 0.3 µg/mL (≈ 1.1 µM) for the first, over 47.2 µg/mL for the second.

Going from `CCNC(=O)c1ccc(=O)n(Cc2ccc(Cl)cc2Cl)c1` to `CCC(=O)c1cn(CC(=O)Nc2cccc(OC)c2)c2ccccc12`, the solubility kinetic falls from 39 µg/mL (≈ 120 µM) to under 0.4 µg/mL.

Compared with `Nc1ccccc1OCCOc1ccccc1N`, `O=C(OCc1csc(-c2ccccc2)n1)c1ccccc1O` is lower in solubility kinetic: over 36.6 µg/mL for the first, under 0.7 µg/mL for the second.

Going from `CCCCCNCc1ccc(Cl)cc1` to `CCOc1ccc(CSCCNC(=S)Nc2ccc(OC)cc2)cc1`, the solubility kinetic falls from 12.4 µg/mL (≈ 58.6 µM) to 1.1 µg/mL (≈ 2.92 µM) (11-fold).

First: CC(C)C(OC(=O)c1ccco1)C(=O)NC1CCCC1 (stereo unspecified)
Second: CC(C)N1C(=O)CCC1C(=O)NCc1ccco1 (stereo unspecified)
The solubility kinetic of the first is higher: over 41.9 µg/mL for the first, 29.2 µg/mL (≈ 117 µM) for the second.

`COC(=O)c1ccccc1NC(=O)COC(=O)[C@H](C)NC(N)=O` and `O=C(O)C1CCCN(C(=O)c2cccc3ccccc23)C1` (stereo unspecified) cannot be ordered by solubility kinetic: over 48.5 µg/mL for the first, over 42.5 µg/mL for the second.

First: Cl.O=C(NCCCn1ccnc1)c1ccc(F)cc1
Second: CC(=O)c1cn(CCOc2ccc(F)cc2)c2ccccc12
The solubility kinetic of the first is higher: over 42.6 µg/mL for the first, 10.8 µg/mL (≈ 36.3 µM) for the second.

Compared with `O=c1c(N2CCOCC2)c(N2CCOCC2)c1=O`, `Cc1cccc(N2CCN(Cc3nc(C4CC4)no3)CC2)n1` is lower in solubility kinetic: over 37.8 µg/mL for the first, 37.8 µg/mL (≈ 126 µM) for the second.

Compared with `CC(=O)c1cccc(NC(=O)C2=CN3CCS(=O)(=O)N=C3C=C2)c1`, `COc1cccc(CNC(=O)c2csc3c2CCCC3)c1` is 2.5-fold lower in solubility kinetic: 48.1 µg/mL (≈ 139 µM) for the first, 19.5 µg/mL (≈ 64.7 µM) for the second.

`CCOCCCNC(=O)/C(C#N)=C/c1ccccc1F` and `CCCn1nc(C(=O)NC2CCCC2)c2ccccc2c1=O` cannot be ordered by solubility kinetic: over 41.4 µg/mL for the first, over 44.9 µg/mL for the second.

Compared with `Cc1cc(C(=O)c2cnc(/N=C/N(C)C)s2)c(F)cc1Cl`, `COc1ccc(-c2noc(CN(C)C(=O)c3ccco3)n2)cc1` is 3.1-fold higher in solubility kinetic: 13.6 µg/mL (≈ 41.7 µM) for the first, 42.7 µg/mL (≈ 136 µM) for the second.

`O=C(c1ccc(OC(F)(F)F)cc1)c1ncc[nH]1` and `COc1ccc2[nH]cc(S(=O)(=O)c3ccc(C)cc3)c2c1` are within 1.5-fold of each other in solubility kinetic: 37.2 µg/mL (≈ 145 µM) for the first, 30.2 µg/mL (≈ 100 µM) for the second.

Compared with `CCCCCCN=C1CC(C)(C)CC(=O)/C1=C(/O)CCC`, `CCC(C)NC(=O)Cc1c(OC)ccc2cc(Br)ccc12` (stereo unspecified) is lower in solubility kinetic: 19.5 µg/mL (≈ 66.5 µM) for the first, under 0.8 µg/mL for the second.

First: c1ccc2nc(-c3nccs3)ccc2c1
Second: CSc1ccc(/C=N/S(=O)(=O)c2ccccc2)cc1
The solubility kinetic of the first is lower: 10.3 µg/mL (≈ 48.5 µM) for the first, over 43.7 µg/mL for the second.

Compared with `O=C(Cc1ccsc1)Nc1ccc2c(c1)OCO2`, `CC1CCCN(CC(O)COCc2ccc3c(c2)OCO3)C1.Cl` (stereo unspecified) is lower in solubility kinetic: over 39.2 µg/mL for the first, 39 µg/mL for the second.

For `c1csc(-c2noc(CN3CCN4CCCC4C3)n2)c1` (stereo unspecified), the solubility kinetic was over 43.6 µg/mL.
